Holding throughout (type): functional
For assay [1], the system named is Streptococcus pneumoniae. Description: Antibacterial activity against erythromycin-resistant Streptococcus pneumoniae isolates by broth microdilution method.
For assay [2], the system named is Streptococcus pneumoniae. Put plainly: Antibacterial activity against erythromycin-resistant Streptococcus pneumoniae isolates assessed as percent susceptible isolates by broth microdilution method.
Assay [3] deals with Streptococcus pneumoniae. Description: Antibacterial activity against erythromycin-resistant Streptococcus pneumoniae isolates assessed as percent resistant isolates by broth microdilution method.
Assay [4] deals with Streptococcus pneumoniae. Description: Antibacterial activity against erythromycin-resistant Streptococcus pneumoniae isolate-1 with gyrA Glu85Lys, ParC Ser79Phe and parE Ile460Val mutation by broth microdilution method.
In assay [5] the test system is Streptococcus pneumoniae. Description: Antibacterial activity against erythromycin-resistant Streptococcus pneumoniae isolate-2 with gyrA Ser81Phe, Ser114Gly, ParC Ser52Gly, Ser79Phe, Asn91Asp and parE Ile460Val mutation by broth microdilution method.
Assay [6] deals with Streptococcus pneumoniae. Put plainly: Antibacterial activity against erythromycin-resistant Streptococcus pneumoniae isolate-3 with ParC Ser79Tyr and parE Ile460Val mutation by broth microdilution method.
The subject of assay [7] is Streptococcus pneumoniae. Description: Antibacterial activity against erythromycin-resistant Streptococcus pneumoniae isolate-4 with gyrA Ser81Phe, ParC Lys137Asn and parE Ile460Val, Asp435Asn mutation by broth microdilution method.
In assay [8] the test system is Streptococcus pneumoniae. Put plainly: Antibacterial activity against erythromycin-resistant Streptococcus pneumoniae isolate-5 with ParC Ser79Tyr, Lys137Asn and parE Ile460Val mutation by broth microdilution method.
Assay [9] deals with Streptococcus pneumoniae. Description: Antibacterial activity against erythromycin-resistant Streptococcus pneumoniae isolate-6 with parE Ile460Val mutation by broth microdilution method.
Assay [10] has as its system Streptococcus pneumoniae. Put plainly: Antibacterial activity against erythromycin-resistant Streptococcus pneumoniae isolate-7 with parE Ile460Val mutation by broth microdilution method.
The subject of assay [11] is Streptococcus pneumoniae. Put plainly: Antibacterial activity against erythromycin-resistant Streptococcus pneumoniae isolate-8 with parE Ile460Val mutation by broth microdilution method.
Assay [12] relates to Streptococcus pneumoniae. Put plainly: Antibacterial activity against erythromycin-resistant Streptococcus pneumoniae isolate-9 with parC Asn94ser and parE Ile460Val mutation by broth microdilution method.

The structures appear in SMILES notation. ≈ marks a conversion by molar mass, not a printed value.

As to `CO/N=C(\C(=O)N[C@@H]1C(=O)N2C(C(=O)O)=C(COC(C)=O)CS[C@H]12)c1csc(N)n1` [CEFOTAXIME], in the assay with Streptococcus pneumoniae [1], the MIC50 was 1 µg/mL (≈ 2.2 µM) and the MIC90 turned out to be 2 µg/mL (≈ 4.39 µM). Also, the Percent susceptible isolates with Streptococcus pneumoniae [2] is 78.7%. In addition, the Activity in the assay on Streptococcus pneumoniae [3] was 3.4%.

For the compound `C[C@H]1COc2c(N3CCN(C)CC3)c(F)cc3c(=O)c(C(=O)O)cn1c23.C[C@H]1COc2c(N3CCN(C)CC3)c(F)cc3c(=O)c(C(=O)O)cn1c23.O` [LEVOFLOXACIN], in the assay with Streptococcus pneumoniae [1], the MIC50 was 1 µg/mL. For the same compound, the MIC90 against Streptococcus pneumoniae [1] worked out at 2 µg/mL. In addition, in the assay with Streptococcus pneumoniae [2], the Percent susceptible isolates amounted to 96.2%. Besides, the Activity in the assay with Streptococcus pneumoniae [3] was determined as 3%. The minimal inhibitory concentration (MIC) against Streptococcus pneumoniae [4] came to 0.032 µg/mL; against Streptococcus pneumoniae [5], 0.008 µg/mL; against Streptococcus pneumoniae [6], 0.064 µg/mL; in the assay on Streptococcus pneumoniae [7] it was 0.008 µg/mL; in the assay with Streptococcus pneumoniae [8] it was 0.004 µg/mL; in the assay with Streptococcus pneumoniae [9] it was 0.008 µg/mL. The figures for the MIC in the assay on Streptococcus pneumoniae [10], against Streptococcus pneumoniae [11] and in the assay with Streptococcus pneumoniae [12] were 0.064 µg/mL, 0.064 µg/mL and 0.004 µg/mL, respectively.

In the assay on Streptococcus pneumoniae [1], `CC[C@H]1OC(=O)[C@H](C)[C@@H](O[C@H]2C[C@@](C)(OC)[C@@H](O)[C@H](C)O2)[C@H](C)[C@@H](O[C@@H]2O[C@H](C)C[C@H](N(C)C)[C@H]2O)[C@](C)(O)C[C@@H](C)C(=O)[C@H](C)[C@@H](O)[C@]1(C)O` [ERYTHROMYCIN] showed an MIC50 of 4 µg/mL (≈ 5.45 µM) and an MIC90 of at least 128 µg/mL. Moreover, in the assay on Streptococcus pneumoniae [2], the Percent susceptible isolates worked out at 20%. Further, in the assay on Streptococcus pneumoniae [3], the Activity was determined as 80%.

On to `CC(=O)NC[C@H]1CN(c2ccc(N3CCOCC3)c(F)c2)C(=O)O1` [LINEZOLID], for which, in the assay with Streptococcus pneumoniae [1], the MIC50 worked out at 0.5 µg/mL (≈ 1.48 µM) and the MIC90 turned out to be 1 µg/mL (≈ 2.96 µM). The Percent susceptible isolates with Streptococcus pneumoniae [2] was found to be 100%. In addition, the Activity with Streptococcus pneumoniae [3] came out at 0%.

For `CC1(C)S[C@@H]2[C@H](NC(=O)[C@H](N)c3ccc(O)cc3)C(=O)N2[C@H]1C(=O)O` [AMOXICILLIN], in the assay on Streptococcus pneumoniae [1], the MIC50 stood at 4 µg/mL (≈ 10.9 µM) and the MIC90 turned out to be 16 µg/mL (≈ 43.8 µM). Besides, the Percent susceptible isolates in the assay with Streptococcus pneumoniae [2] came out at 40.9%. In addition, the Activity in the assay on Streptococcus pneumoniae [3] was 33.2%.

For the compound `COc1c(N2C[C@@H]3CCCN[C@@H]3C2)c(F)cc2c(=O)c(C(=O)O)cn(C3CC3)c12` [MOXIFLOXACIN], the Percent susceptible isolates in the assay with Streptococcus pneumoniae [2] is on record as 97.9%. In addition, the Activity in the assay on Streptococcus pneumoniae [3] came out at 1.7%.

`CO/N=C(\C(=O)N[C@@H]1C(=O)N2C(C(=O)O)=C(CSc3nc(=O)c(O)nn3C)CS[C@H]12)c1csc(N)n1` [CEFTRIAXONE]: in the assay with Streptococcus pneumoniae [1], the MIC50 was 1 µg/mL (≈ 1.8 µM) and the MIC90 was determined as 2 µg/mL (≈ 3.61 µM). Moreover, in the assay on Streptococcus pneumoniae [2], the Percent susceptible isolates came to 76.2%. The Activity with Streptococcus pneumoniae [3] is listed as 3.4%.

In the assay with Streptococcus pneumoniae [1], `CN[C@H](CC(C)C)C(=O)N[C@H]1C(=O)N[C@@H](CC(N)=O)C(=O)N[C@H]2C(=O)N[C@H]3C(=O)N[C@H](C(=O)N[C@H](C(=O)O)c4cc(O)cc(O)c4-c4cc3ccc4O)[C@H](O)c3ccc(c(Cl)c3)Oc3cc2cc(c3O[C@@H]2O[C@H](CO)[C@@H](O)[C@H](O)[C@H]2O[C@H]2C[C@](C)(N)[C@H](O)[C@H](C)O2)Oc2ccc(cc2Cl)[C@H]1O` [VANCOMYCIN] gave an MIC50 of 0.25 µg/mL (≈ 0.173 µM) and an MIC90 of 0.25 µg/mL (≈ 0.173 µM). The Percent susceptible isolates in the assay with Streptococcus pneumoniae [2] is on record as 100%. Moreover, in the assay on Streptococcus pneumoniae [3], the Activity is 0%.

With `CN(C)[C@@H]1C(O)=C(C(N)=O)C(=O)[C@@]2(O)C(O)=C3C(=O)c4c(O)cccc4[C@@](C)(O)[C@H]3C[C@@H]12` [TETRACYCLINE], in the assay with Streptococcus pneumoniae [1], the MIC50 is 32 µg/mL (≈ 72 µM) and the MIC90 was 64 µg/mL (≈ 144 µM). The Percent susceptible isolates with Streptococcus pneumoniae [2] is 18.3%. In addition, the Activity in the assay with Streptococcus pneumoniae [3] is reported as 81.3%.

For `CC[C@H]1OC(=O)[C@H](C)[C@@H](O[C@H]2C[C@@](C)(OC)[C@@H](O)[C@H](C)O2)[C@H](C)[C@@H](O[C@@H]2O[C@H](C)C[C@H](N(C)C)[C@H]2O)[C@](C)(OC)C[C@@H](C)C(=O)[C@H](C)[C@@H](O)[C@]1(C)O` [CLARITHROMYCIN], in the assay with Streptococcus pneumoniae [1], the MIC50 was 64 µg/mL (≈ 85.6 µM) and the MIC90 is at least 128 µg/mL. Also, in the assay with Streptococcus pneumoniae [2], the Percent susceptible isolates is recorded as 23.4%. Moreover, in the assay on Streptococcus pneumoniae [3], the Activity was 72.8%.

These data come from ChEMBL document CHEMBL1157371, “Prevalence, characteristics, and molecular epidemiology of macrolide and fluoroquinolone resistance in clinical isolates of Streptococcus pneumoniae at five tertiary-care hospitals in Korea” (2007).
